# Assay results taken from ChEMBL document CHEMBL4689842, “EUbOPEN Chemogenomics Library wave 1” (2021).
# Columns and labels:
# Type in all cases: toxicity, cell-based
# HEK-293T = experiment: Incucyte cell viability with HEK293T; conditions: human, 10 µM, compound concentration 10 uM
# Fibroblast = experiment: Incucyte cell viability with human fibroblast; conditions: 10 µM, compound concentration 10 uM
# U2OS = experiment: Incucyte cell viability with U2OS; conditions: human, 10 µM, compound concentration 10 uM
# [1] = 0 h, replicate number 1, timepoint 0 hours
# [2] = 6 h, replicate number 1, timepoint 6 hours
# [3] = 12 h, replicate number 1, timepoint 12 hours
# [4] = 18 h, replicate number 1, timepoint 18 hours
# [5] = 24 h, replicate number 1, timepoint 24 hours
# [6] = 0 h, replicate number 2, timepoint 0 hours
# [7] = 18 h, replicate number 2, timepoint 18 hours
# [8] = 6 h, replicate number 2, timepoint 6 hours
# [9] = 12 h, replicate number 2, timepoint 12 hours
# [10] = 24 h, replicate number 2, timepoint 24 hours
# Further: filed as whole numbers so only -1 and 0 and 1 occur.
SMILES,Growth Rate (HEK-293T; [1]),Growth Rate (HEK-293T; [2]),Growth Rate (HEK-293T; [3]),Growth Rate (HEK-293T; [4]),Growth Rate (HEK-293T; [5]),Growth Rate (Fibroblast; [1]),Growth Rate (Fibroblast; [6]),Growth Rate (Fibroblast; [2]),Growth Rate (Fibroblast; [3]),Growth Rate (Fibroblast; [4]),Growth Rate (Fibroblast; [7]),Growth Rate (Fibroblast; [5]),Growth Rate (U2OS; [1]),Growth Rate (U2OS; [7]),Growth Rate (U2OS; [5]),Growth Rate (U2OS; [2]),Growth Rate (U2OS; [3]),Growth Rate (U2OS; [4]),Growth Rate (HEK-293T; [6]),Growth Rate (Fibroblast; [8]),other results
CC1=C2C[C@H]3[C@@H](CC=C4C[C@@H](O)CC[C@@]43C)[C@@H]2CC[C@]12O[C@@H]1C[C@H](C)CN[C@H]1[C@H]2C [CYCLOPAMINE],0,0,0,0,0,0,1,1,0,0,1,0,0,1,1,–,–,–,–,–,Growth Rate (U2OS; [8]): 0; Growth Rate (U2OS; [9]): 1
Cc1c(F)cccc1NC(=O)Nc1ccc(Cl)c(S(=O)(=O)[C@H]2CCCNC2)c1O [DANIRIXIN],0,0,0,0,0,0,–,–,1,1,–,1,0,1,0,0,0,0,–,–,Growth Rate (U2OS; [6]): 1; Growth Rate (U2OS; [8]): 1; Growth Rate (U2OS; [9]): 1; Growth Rate (U2OS; [10]): 1
CCN(CCO)CCCOc1ccc2c(Nc3cc(CC(=O)Nc4cccc(F)c4)[nH]n3)ncnc2c1 [DEFOSBARASERTIB],–,–,–,–,1,–,1,0,0,0,–,0,1,–,0,0,0,0,1,–,Growth Rate (HEK-293T; [8]): 1
COc1cccc(-c2c(C)n(Cc3c(F)cccc3C(F)(F)F)c(=O)n(C[C@H](NCCCC(=O)[O-])c3ccccc3)c2=O)c1F.[Na+] [ELAGOLIX SODIUM],0,1,1,1,1,0,1,–,–,–,0,–,–,1,0,0,0,0,–,0,Growth Rate (HEK-293T; [9]): 0; Growth Rate (Fibroblast; [9]): 0; Growth Rate (Fibroblast; [10]): 0; Growth Rate (U2OS; [6]): 1
C[C@H](NC(=O)Nc1cc2[nH]ncc2c(CO)n1)c1ccccn1 [ERKi-NC],0,–,–,1,1,–,1,0,0,1,0,1,0,1,0,0,0,0,1,–,Growth Rate (U2OS; [8]): 1; Growth Rate (U2OS; [9]): 1; Growth Rate (U2OS; [10]): 1
C[C@@H](NC(=O)Nc1cc2[nH]ncc2c(CO)n1)c1ccccc1 [ERKi],0,–,–,–,–,0,–,–,1,1,–,0,0,–,0,0,0,0,–,–,Growth Rate (HEK-293T; [10]): 1; Growth Rate (Fibroblast; [10]): 1
CCOC(=O)c1ncn2c1CN(C)C(=O)c1cc(F)ccc1-2 [FLUMAZENIL],0,1,1,1,1,0,–,–,–,1,0,1,1,1,0,0,0,0,–,0,Growth Rate (HEK-293T; [8]): 0; Growth Rate (HEK-293T; [9]): 0; Growth Rate (HEK-293T; [7]): 0; Growth Rate (HEK-293T; [10]): 0; Growth Rate (Fibroblast; [9]): 0; Growth Rate (U2OS; [10]): 1
CC(C)(N)C(=O)N[C@H](COCc1ccccc1)C(=O)N1CCC2(CC1)CN(S(C)(=O)=O)c1ccccc12.CS(=O)(=O)O [IBUTAMOREN MESYLATE],0,0,1,0,0,1,–,0,0,0,–,0,–,–,1,–,–,1,–,1,Growth Rate (HEK-293T; [7]): 1; Growth Rate (HEK-293T; [10]): 1; Growth Rate (Fibroblast; [9]): 1; Growth Rate (U2OS; [8]): 1; Growth Rate (U2OS; [9]): 1
CN(C)CCCN1c2ccccc2CCc2ccccc21.Cl [IMIPRAMINE HYDROCHLORIDE],–,0,0,0,0,0,–,0,0,1,0,0,–,–,1,–,1,1,1,–,Growth Rate (U2OS; [6]): 0
CC(C)(O)c1cncc(-c2nc3ccc(F)cc3n2C2CC2)c1 [MSD-CYP11B2],0,–,0,0,0,–,–,1,1,1,0,–,0,1,1,0,0,0,1,0,Growth Rate (HEK-293T; [7]): 1; Growth Rate (Fibroblast; [10]): 1; Growth Rate (U2OS; [8]): 1; Growth Rate (U2OS; [9]): 1
N#CC1(c2ccccn2)CCN(Cc2cc(C(=O)O)c(=O)n3ccccc23)CC1 [MSD-M1PAM],1,1,1,1,1,0,–,0,0,0,1,0,–,1,0,0,0,0,0,–,Growth Rate (HEK-293T; [10]): 0; Growth Rate (U2OS; [6]): 1; Growth Rate (U2OS; [10]): 1
c1cc(CN2CCCNCCNCCCNCC2)ccc1CN1CCCNCCNCCCNCC1 [PLERIXAFOR],1,0,0,0,0,0,1,1,0,1,0,0,–,0,1,0,1,1,0,0,Growth Rate (HEK-293T; [8]): 1; Growth Rate (U2OS; [9]): 0; Growth Rate (U2OS; [10]): 0
COc1ncc(F)cc1CNc1ccc(Cc2c[nH]c3ncc(C)cc23)c(F)n1 [PLX-5622],0,1,1,1,1,–,1,1,1,0,1,0,–,–,0,0,0,0,1,0,Growth Rate (HEK-293T; [10]): 0; Growth Rate (Fibroblast; [9]): 0; Growth Rate (U2OS; [6]): 0
CC(C)NCC(O)COc1cccc2ccccc12.Cl (stereo not given) [PROPRANOLOL HYDROCHLORIDE],–,0,0,0,0,0,–,1,1,1,0,1,0,–,1,0,1,1,0,0,Growth Rate (HEK-293T; [8]): 1; Growth Rate (Fibroblast; [9]): 0; Growth Rate (Fibroblast; [10]): 0
